Assay results taken from US20080096981A1, “Antibodies against inducible TH2 cell factors” (Genaera Corporation, priority 1999, published 2008).
“Also recorded” adds a separate entry of the source.

B1: IL-9: recombinant murine IL-9, TH2 associated cytokine (protein, UniProt P15247 19-144, looked up)
Interleukin-9: QRCSTTWGIRDTNYLIENLKDDPPSKCSCSGNVTSCLCLSVPTDDCTTPCYREGLLQLTNATQKSRLLPVFHRVKRIVEVLKNITCPSFSCEKPCNQTMAGNTLSFLKSLLGTFQKTEMQRQKSRP

Tested on: TH2AF1
Assay: TH2AF1 expression in lung of C57BL/6 mice after intratracheal instillation of recombinant cytokines
Type: in vivo, mouse
Conditions: recombinant cytokine instilled into trachea of C57BL/6 mice, FIG. 5
Method: To confirm that the expression of IL-9 was critically related to the expression of TH2AF1 and to control for genetic background specifically, recombinant murine IL-9 was introduced into the lung of murine strain C57BL/6. Recombinant IL-9 was instilled into the trachea of anesthetized mice by addition of 50 μl of a 0.1 mg/ml IL-9 solution or vehicle alone (0.1% bovine serum albumin) daily for ten days. After ten days, the mice were euthanized and lungs extracted for either RNA expression analysis using Trizol as described by the manufacturer (Gibco-BRL) or Western blot analysis to determine levels of IL-9 instilled.
Expression of TH2AF1 RNA was measured as described in Example 3. […] Ribosomal RNAs (rRNA, lower panel) were stained using ethidium bromide (lower panel) to control for RNA loading.

Molecule | induction of TH2AF1 expression in the lung (steady state mRNA)
interferon gamma: recombinant TH1 associated cytokine | did not induce and not
B1 | expressed; also recorded: induced the expression
